Data on nine compounds can be found in publication PMC7339578, “Multiple circulating alkaloids and saponins from intravenous Kang-Ai injection inhibit human cytochrome P450 and UDP-glucuronosyltransferase isozymes: potential drug–drug interactions” (Chinese Medicine, 2020).

The target of one data set is T1, UGT1A9 (Homo sapiens, UniProt O60656).
T1 sequence (O60656 26-530): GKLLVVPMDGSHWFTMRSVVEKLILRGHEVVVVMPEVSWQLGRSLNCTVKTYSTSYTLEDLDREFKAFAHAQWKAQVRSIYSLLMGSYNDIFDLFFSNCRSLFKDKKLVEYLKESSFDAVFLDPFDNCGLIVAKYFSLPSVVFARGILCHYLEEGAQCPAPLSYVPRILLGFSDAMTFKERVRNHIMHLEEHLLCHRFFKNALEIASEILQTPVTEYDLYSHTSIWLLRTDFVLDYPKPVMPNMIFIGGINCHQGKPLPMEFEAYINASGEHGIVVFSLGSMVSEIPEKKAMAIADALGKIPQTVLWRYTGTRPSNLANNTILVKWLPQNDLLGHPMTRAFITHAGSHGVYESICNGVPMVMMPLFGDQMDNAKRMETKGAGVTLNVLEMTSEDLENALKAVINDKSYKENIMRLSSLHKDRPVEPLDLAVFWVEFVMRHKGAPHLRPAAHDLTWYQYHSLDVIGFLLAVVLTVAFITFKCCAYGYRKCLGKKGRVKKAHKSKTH
In words: Inhibition of expressed UGT1A9 (probe propofol). Format: in vitro ADME. As for the experimental part: After centrifugation (13,800g, 10 min), the supernatant (8 μL) was obtained for determination by UHPLC system.
Similarly, β-estradiol (60 μM), propofol (40 μM) and 4-MU (350 μM) were typically used as the substrates for UGT1A1, 1A9 and 2B7, respectively. After optimization of incubation conditions (Additional file 1: Fig. S2), the protein concentrations for UGT1A1, 1A9, and 2B7 were 0.125, 0.05, and 0.05 mg/mL, respectively.

A short description of data set [1]: Protein binding assay (equilibrium dialysis). The class given is in vitro ADME, rat. Summed up:
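Rat plasma binding was measured by equilibrium dialysis (12–14 kDa cutoff membrane), equilibrated 24 h at 37 °C and 55 rpm. Alkaloids were tested at 2 μmol/L and saponins at 4 μmol/L. Unbound fraction = dialysate concentration/post-dialysis plasma concentration × 100%.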
(Equilibrium dialysis compares concentrations on both sides of a semipermeable membrane.)

Another data set concerns the target T2, CYP2A6 (Homo sapiens, UniProt P11509).
T2 sequence (P11509 1-494): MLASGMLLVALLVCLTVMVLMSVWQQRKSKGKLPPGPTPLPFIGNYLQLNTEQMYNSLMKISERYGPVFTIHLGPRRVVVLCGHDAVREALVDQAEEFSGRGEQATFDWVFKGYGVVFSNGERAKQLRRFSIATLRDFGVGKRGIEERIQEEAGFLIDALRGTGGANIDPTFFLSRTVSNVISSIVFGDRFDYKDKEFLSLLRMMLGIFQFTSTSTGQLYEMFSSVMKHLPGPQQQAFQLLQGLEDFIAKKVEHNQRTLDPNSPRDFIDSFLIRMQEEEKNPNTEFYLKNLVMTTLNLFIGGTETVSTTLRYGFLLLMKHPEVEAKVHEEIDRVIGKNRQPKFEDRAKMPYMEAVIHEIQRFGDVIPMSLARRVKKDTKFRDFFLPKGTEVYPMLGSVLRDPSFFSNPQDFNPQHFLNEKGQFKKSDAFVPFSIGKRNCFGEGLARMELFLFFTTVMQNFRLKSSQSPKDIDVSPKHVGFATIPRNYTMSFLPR
Description: Inhibition of recombinant CYP2A6 (probe coumarin). Format: in vitro ADME. As for the experimental part:
In this study, phenacetin (100 μM), coumarin (100 μM), bupropion (100 μM), paclitaxel (60 μM), tolbutamide (200 μM), mephenytoin (100 μM), chlorzoxazone (200 μM) and nifedipine (40 μM) have been used as the probe substrates for CYP1A2, 2A6, 2B6, 2C8, 2C9, 2C19, 2E1 and 3A4, respectively.

A short description of data set [2]: Biliary (hepatobiliary) excretion in rats after a 30-min infusion of Kang-Ai injection. The class given is in vivo, Sprague–Dawley rats. The conditions noted are these: for fe-B,0–12h (fraction of dose excreted into bile): rat bile 0–12 h; for fe-B,0–12h (fraction of dose excreted into bile) / detection in bile: Kang-Ai injection 6 mL/kg iv; for detection in bile: rat bile. The method in brief:
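Urine collected in metabolic cages at 0–4, 4–8, 8–12 h and bile at 0–3, 3–6, 6–9, 9–12 h after infusion start, weighed and frozen at −80 °C. Non-compartmental analysis; CLR and CLB as cumulative urinary or biliary amount divided by plasma AUC0-∞, fe-U and fe-B as cumulative amount/dose; mean ± SD (n = 3).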

[3] abbreviates: recombinant isozyme, mean ± SD of triplicate, unit not given (IC50 classes in μM), read-out: IC50 towards UGT1A9.
Where [4] appears, read: recombinant isozyme, mean ± SD of triplicate, unit not given (IC50 classes in μM), read-out: IC50 towards CYP2A6.
The mark [5] stands for this setting: rat plasma, equilibrium dialysis 24 h, 37 °C, 2 μmol/L alkaloids, 4 μmol/L saponins, read-out: fu-plasma (unbound fraction).

Values joined by “and” are separate entries in the source; they are usually repeats but may differ in a detail not shown here. Equal values may be shown once. Read-outs that look alike come from different tables or passages of the source. Some results are limits rather than exact numbers.

As a reminder, the IC50 is the concentration that gives 50% inhibition. As usually defined, the fraction unbound is free concentration divided by total concentration. As to `CC(C)=CCC[C@](C)(O)[C@H]1CC[C@]2(C)[C@@H]1[C@H](O)C[C@@H]1[C@@]3(C)CC[C@H](O)C(C)(C)[C@@H]3[C@@H](O[C@@H]3O[C@H](CO)[C@@H](O)[C@H](O)[C@H]3O[C@@H]3O[C@H](CO)[C@@H](O)[C@H](O)[C@H]3O)C[C@]12C` [Compound C7, Ginsenoside Rf], the IC50 on UGT1A9 (setting [3]) and on CYP2A6 (setting [4]) was above 100 µM throughout. This compound came in with a fraction unbound at 24 h in data set [1] (rat, plasma) of 0.602 ± 0.0701. Besides, the “fe-B,0–12h (fraction of dose excreted into bile)” value in data set [2] turned out to be 13.12 ± 1.68%.

Turning to `O=C1CCC[C@@H]2[C@H]3CCC[N+]4([O-])CCC[C@@H](CN12)[C@@H]34` (stereo partly shown) [Compound A3, Oxymatrine], the 50% inhibitory concentration (IC50) at UGT1A9 (IC50 towards UGT1A9, recombinant isozyme, mean ± SD of triplicate, unit not given (IC50 classes in μM)) is above 100 µM; at CYP2A6, above 100 µM. Moreover, the free fraction (fraction unbound) at 24 h in data set [1] (rat, plasma) is 0.932 ± 0.0652. The “CLB (hepatobiliary clearance)” value in data set [2] (male, Sprague-Dawley, rat, in vivo, iv) is on record as 31.95 ± 4.76 mL/h.

Regarding `O=C1CCC[C@@H]2[C@H]3CCCN4CCC[C@@H](CN12)[C@@H]34` [Compound A1, Matrine], the concentration for half-maximal inhibition (IC50) at UGT1A9 and on CYP2A6 was above 100 µM each time. For the same compound, in data set [1] (setting [5]), the fraction unbound at 24 h came to 0.927 ± 0.0681. Besides, the “fe-B,0–12h (fraction of dose excreted into bile)” value in data set [2] was 36.55% and 36.55 ± 4.24%.

Regarding `CC(C)=CCC[C@](C)(O[C@@H]1O[C@H](CO[C@@H]2O[C@H](CO)[C@@H](O)[C@H](O)[C@H]2O)[C@@H](O)[C@H](O)[C@H]1O)[C@H]1CC[C@]2(C)[C@@H]1[C@H](O)C[C@@H]1[C@@]3(C)CC[C@H](O[C@@H]4O[C@H](CO)[C@@H](O)[C@H](O)[C@H]4O[C@@H]4O[C@H](CO)[C@@H](O)[C@H](O)[C@H]4O)C(C)(C)[C@@H]3CC[C@]12C` [Compound D5, Ginsenoside Rb1], the IC50 on UGT1A9 (setting [3]) and at CYP2A6 (setting [4]) was above 100 µM each time. Further, in data set [1] (setting [5]), the fraction unbound at 24 h is 0.0096 ± 0.0009. Besides, the detection in bile entry in data set [2] is given as “not detected in bile”.

By Ki is commonly meant the dissociation constant of the complex between target and ligand, obtained from inhibition or displacement. Read a low Ki as higher affinity. Take `CC(C)=CCC[C@](C)(O[C@@H]1O[C@H](CO[C@@H]2O[C@@H](CO)[C@H](O)[C@H]2O)[C@@H](O)[C@H](O)[C@H]1O)[C@H]1CC[C@]2(C)[C@@H]1[C@H](O)C[C@@H]1[C@@]3(C)CC[C@H](O[C@@H]4O[C@H](CO)[C@@H](O)[C@H](O)[C@H]4O[C@@H]4O[C@H](CO)[C@@H](O)[C@H](O)[C@H]4O)C(C)(C)[C@@H]3CC[C@]12C` [Compound D3, Ginsenoside Rc]: on UGT1A9 (UGT1A9), the “inhibition type (smallest AIC and SC)” value is on record as “Noncompetitive inhibition”. Besides, the Ki at UGT1A9 (UGT1A9, competitive model) is 8.9 ± 1.5 µM; at UGT1A9 (UGT1A9, mixed-type model), 27 ± 7.5 µM; at UGT1A9 (UGT1A9, noncompetitive model), 22.3 ± 1.4 µM. The α at UGT1A9 (UGT1A9, mixed-type model) is 0.7 ± 0.3. Also, at UGT1A9 (UGT1A9, selected model, rat plasma Cmax), the “Cmax/Ki ([I]/Ki)” value was found to be 0.04. Also, the half-maximal inhibitory concentration (IC50) at UGT1A9 (propofol 40 μM, read-out: IC50 against UGT1A9) is 29 µM; on UGT1A9 (setting [3]), 29 ± 12.7 µM; at CYP2A6 (setting [4]), above 100 µM. For the same compound, the unbound share (fraction unbound) at 24 h in data set [1] (setting [5]) stood at 0.0112 ± 0.0012. Also, in data set [2], the detection in bile entry was “not detected in bile”.

On to `CC(C)=CCC[C@](C)(O[C@@H]1O[C@H](CO)[C@@H](O)[C@H](O)[C@H]1O)[C@H]1CC[C@]2(C)[C@@H]1[C@H](O)C[C@@H]1[C@@]3(C)CC[C@H](O)C(C)(C)[C@@H]3[C@@H](O[C@@H]3O[C@H](CO)[C@@H](O)[C@H](O)[C@H]3O[C@@H]3O[C@@H](C)[C@H](O)[C@@H](O)[C@H]3O)C[C@]12C` [Compound C9, Ginsenoside Re], for which the IC50 on UGT1A9 (setting [3]) and at CYP2A6 (setting [4]) was above 100 µM throughout. For the same compound, in data set [1] (setting [5]), the free fraction (fraction unbound) at 24 h was determined as 0.874 ± 0.0659. Besides, in data set [2], the “fe-B,0–12h (fraction of dose excreted into bile)” value is reported as 28.27 ± 4.16%.

With `CC(C)=CCC[C@](C)(O[C@@H]1O[C@H](CO)[C@@H](O)[C@H](O)[C@H]1O)[C@H]1CC[C@]2(C)[C@@H]1[C@H](O)C[C@@H]1[C@@]3(C)CC[C@H](O)C(C)(C)[C@@H]3[C@@H](O[C@@H]3O[C@H](CO)[C@@H](O)[C@H](O)[C@H]3O)C[C@]12C` [Compound C6, Ginsenoside Rg1], the IC50 at UGT1A9 (setting [3]) and at CYP2A6 (setting [4]) was above 100 µM throughout. Also, the free fraction (fraction unbound) at 24 h in data set [1] (setting [5]) was 0.863 ± 0.0732. Moreover, the “fe-B,0–12h (fraction of dose excreted into bile)” value in data set [2] is 20.71 ± 3.62%.

For the compound `CC(C)=CCC[C@](C)(O[C@@H]1O[C@H](CO)[C@@H](O)[C@H](O)[C@H]1O)[C@H]1CC[C@]2(C)[C@@H]1[C@H](O)C[C@@H]1[C@@]3(C)CC[C@H](O[C@@H]4O[C@H](CO)[C@@H](O)[C@H](O)[C@H]4O[C@@H]4O[C@H](CO)[C@@H](O)[C@H](O)[C@H]4O)C(C)(C)[C@@H]3CC[C@]12C` [Compound D2, Ginsenoside Rd], the half-inhibitory concentration (IC50) at UGT1A9 (setting [3]) and on CYP2A6 (setting [4]) was above 100 µM throughout. For the same compound, the fraction unbound at 24 h in data set [1] (setting [5]) amounted to 0.0075 ± 0.0008. In data set [2], the “fe-B,0–12h (fraction of dose excreted into bile)” value was 5.55% and 5.55 ± 1.02%.

As for `CC(C)(O)[C@@H]1CC[C@](C)([C@H]2[C@@H](O)C[C@@]3(C)[C@@H]4C[C@H](O[C@@H]5O[C@H](CO)[C@@H](O)[C@H](O)[C@H]5O)[C@H]5C(C)(C)[C@@H](O[C@@H]6OC[C@@H](O)[C@H](O)[C@H]6O)CC[C@@]56C[C@@]46CC[C@]23C)O1` [Compound B2, Astragaloside IV], the concentration for half-maximal inhibition (IC50) on UGT1A9 (setting [3]) and at CYP2A6 (setting [4]) was above 100 µM in each case. Further, in data set [1] (rat plasma, equilibrium dialysis), the “bound in rat plasma” value was around 90%. Also, the “fu-plasma (unbound fraction)” value in data set [1] (rat plasma, equilibrium dialysis 24 h, 37 °C, 2 μmol/L alkaloids, 4 μmol/L saponins) was 12.35 ± 1.02%.
